From patent US20150225404A1, “PYRIDINE DERIVATIVE AND MEDICINE” (NIPPON SHINYAKU CO., LTD., priority 2012, published 2015)
Counter-ions that a name gives are not always drawn. Like-named read-outs stand apart in the source and are kept apart here.

What was measured:
[1] = biological target: T1, human mGluR5 (Homo sapiens, UniProt P41594); experiment: Experiment for receptor function of mGluR5 (Ca2+-dependent fluorescence, FLIPR, CHO-K1 cells stably expressing human mGluR5); type: cell-based; conditions: L-glutamic acid 10 μM, Fluo-4 fluorescence
T1 construct: expressed in transfected cells
Outline: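 Fluo-4-loaded CHO-K1 cells pre-incubated 2 min with test substance, then stimulated with L-glutamic acid (final 10 μM) in HBSS, pH 7.4. FLIPR Ca2+ fluorescence normalized to glutamate alone (100%) and glutamate with 10 μM MPEP (0%); IC50 estimated by logistic fit.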

[2] = tested on: male Slc:ICR mice; experiment: Action against formalin-induced pain behavior in mice; type: in vivo; conditions: Mus musculus, iv, 0.1 h, test substance 1 mg/kg intravenously, 6 minutes observation, read-out: Percent inhibition of pain-related behavior time (%)
Method: 4 to 6-week-old male Slc:ICR mice (available from Japan SLC, Inc.) were used. A medium or a test substance (1 mg/kg or 3 mg/kg) was intravenously administered to each mouse, and immediately thereafter, 20 μL of 1% or 5% formalin was subcutaneously administered to a right hind paw of the mouse. Thereafter, the mice were quickly put into an observation cage and measured for the total time (sec) of pain-related behavior (licking or biting behavior against the right hindlimb) during 6 minutes, and an average value of the pain-related behavior time of each group was calculated.
The intensity of an analgesic action of the test substance was evaluated in terms of percent inhibition (%) of pain-related behavior time which is calculated as {(A−B)/A×100}, wherein A is an average value of the pain-related behavior time of a medium-administered group, and B is an average value of the pain-related behavior time of a test substance-administered group.

[3] = tested on: male Slc:ICR mice; experiment: Action against pain-related behavior and micturition cycle in mice with cyclophosphamide (CP)-induced acute cystitis; type: in vivo; conditions: Mus musculus, iv, 0.25 h, CP 300 mg/kg i.p., 15 minutes observation; for inhibition in vivo at 3 mg/kg: test substance 3 mg/kg intravenously 3 hours after CP; for inhibition in vivo at 1 mg/kg: test substance 1 mg/kg intravenously 3 hours after CP
Method: An action of a test substance against visceral pain and frequent urination associated with cystitis, which was induced by intraperitoneal administration (20 mL/kg) of CP (300 mg/kg) to 4 to 5-week-old male Slc:ICR mice (available from Japan SLC, Inc.), was investigated. This experiment was performed according to a method described in European Journal of Pharmacology, 676 (2012), pp. 75-80.
Three hours after the administration of CP, a test substance (1 mg/kg or 3 mg/kg) was intravenously administered, and observation by visual inspection and video recording were performed for 15 minutes immediately thereafter. In the observation by visual inspection, four pain-related behaviors (eye opening, rounded back, leg dragging, and behavior during urination) were scored, each rated on a scale of 0-10, according to the following criteria.
Eye opening (normal: 0 point, sometimes closed or half-open eyes: 5 points, completely closed: 10 points)
Rounded back (normal: 0 point, sometimes crouched: 5 points, crouched at almost all times: 10 points)
Leg dragging (normal: 0 point, leg dragging: 10 points)
Behavior during urination (normal: 0 point, shaking hip in micturition: 10 points)
In addition, the video was played back, and the frequency of licking behavior around the abdomen as a pain-related behavior was scored, rated on a scale of 0-10, according to the following criteria.
Licking behavior around the abdomen (0 to 3 times: 0 point, 4 times to 10 times: 5 points, 11 times or more: 10 points)
Furthermore, the video was played back, and the frequency of urination (urination marks) on a filter paper was counted and taken as an index for micturition cycle.
An average value of the pain-related behavior score of each group (total score of the five items: 50 points at maximum) and an average value of the frequency of urination (urination marks) on the filter paper were determined.
The strength of an analgesic action of the test substance against the CP-induced visceral pain was evaluated in terms of percent inhibition (%) of pain-related behavior score which is calculated as {(A−B)/A×100}, wherein A is an average value of the pain-related behavior score of a medium-administered group, and B is an average value of the pain-related behavior score of a test substance-administered group.
In addition, the strength of a frequent urination inhibitory action of the test substance against the CP-induced frequent urination was evaluated in terms of percent inhibition (%) of the frequency of urination which is calculated as {(C−D)/C×100}, wherein C is an average value of the frequency of urination of a medium-administered group, and D is an average value of the frequency of urination of a test substance-administered group.

[4] = read-out: Percent inhibition of pain-related behavior score (%)
[5] = read-out: Percent inhibition of the frequency of urination (%)

T1 sequence (P41594 21-1212): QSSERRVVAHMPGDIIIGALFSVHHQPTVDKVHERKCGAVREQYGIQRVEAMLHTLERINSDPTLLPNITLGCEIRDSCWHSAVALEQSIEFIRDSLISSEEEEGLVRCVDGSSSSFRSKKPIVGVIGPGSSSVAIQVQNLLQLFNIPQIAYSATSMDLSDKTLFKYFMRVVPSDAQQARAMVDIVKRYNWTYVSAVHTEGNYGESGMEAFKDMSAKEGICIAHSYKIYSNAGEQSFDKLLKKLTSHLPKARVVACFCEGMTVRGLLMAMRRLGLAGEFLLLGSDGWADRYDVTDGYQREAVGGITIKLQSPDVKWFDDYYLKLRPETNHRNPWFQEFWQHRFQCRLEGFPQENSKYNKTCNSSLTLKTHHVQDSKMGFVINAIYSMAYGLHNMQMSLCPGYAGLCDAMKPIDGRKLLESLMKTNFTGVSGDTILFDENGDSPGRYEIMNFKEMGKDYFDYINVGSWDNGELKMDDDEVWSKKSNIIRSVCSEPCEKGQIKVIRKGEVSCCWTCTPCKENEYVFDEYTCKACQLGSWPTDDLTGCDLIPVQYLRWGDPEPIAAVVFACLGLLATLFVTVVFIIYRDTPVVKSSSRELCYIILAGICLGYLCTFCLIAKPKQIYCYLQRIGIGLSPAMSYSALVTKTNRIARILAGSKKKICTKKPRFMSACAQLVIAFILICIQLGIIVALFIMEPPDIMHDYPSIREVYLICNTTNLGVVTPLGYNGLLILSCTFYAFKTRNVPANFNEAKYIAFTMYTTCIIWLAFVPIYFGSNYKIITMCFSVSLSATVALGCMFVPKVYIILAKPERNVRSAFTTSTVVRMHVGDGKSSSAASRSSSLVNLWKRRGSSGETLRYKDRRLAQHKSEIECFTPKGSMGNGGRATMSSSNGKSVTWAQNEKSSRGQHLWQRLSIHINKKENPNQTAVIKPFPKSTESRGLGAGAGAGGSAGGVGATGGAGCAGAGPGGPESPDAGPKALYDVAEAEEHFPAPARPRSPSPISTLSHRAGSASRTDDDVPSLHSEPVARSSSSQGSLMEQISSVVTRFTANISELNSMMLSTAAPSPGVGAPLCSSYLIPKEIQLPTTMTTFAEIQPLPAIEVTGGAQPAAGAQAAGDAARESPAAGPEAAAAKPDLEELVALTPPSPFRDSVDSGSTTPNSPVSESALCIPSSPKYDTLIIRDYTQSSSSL

IC50 [1] [nM]	Compound	inhibition in vivo at 1 mg/kg ([2]; 1% formalin) [%]	inhibition in vivo at 3 mg/kg [3, 4] [%]	inhibition in vivo at 3 mg/kg [3, 5] [%]	inhibition in vivo at 1 mg/kg ([2]; 5% formalin) [%]	inhibition in vivo at 1 mg/kg [3, 4] [%]	inhibition in vivo at 1 mg/kg [3, 5] [%]
73.6	Fc1cccnc1COc1cc(-c2cncnc2)c2c(n1)CCC2 [Example 26, 2-[(3-Fluoropyridin-2-yl)methoxy]-4-(pyrimidin-5-yl)-6,7-dihydro-5H-cyclopenta[b]pyridine]	71.9	60.5	57.3			
161	N#Cc1ncc(-c2cc(OCc3ccccn3)nc3c2CCCC3)cn1 [Example 173, 5-[2-(Pyridin-2-ylmethoxy)-5,6,7,8-tetrahydroquinolin-4-yl]pyrimidine-2-carbonitrile hydrochloride]		63.3	52.6	65.4		
36	Cc1ncc(-c2cc(OCc3ncccc3F)nc3c2CCCC3)cn1 [Example 187, 2-[(3-Fluoropyridin-2-yl)methoxy]-4-(2-methylpyrimidin-5-yl)-5,6,7,8-tetrahydroquinoline]				59.4	22.9	51.6
56.3	N#Cc1nccnc1-c1cc(OCc2ccccn2)nc2c1CCCC2 [Example 198, 3-[2-(Pyridin-2-ylmethoxy)-5,6,7,8-tetrahydroquinolin-4-yl]pyrazine-2-carbonitrile hydrochloride]	24.7	40.4	37.6			
131	Cc1cncc(-c2cc(OCc3ncccc3F)nc3c2CCCC3)n1 [Example 214, 2-[(3-Fluoropyridin-2-yl)methoxy]-4-(6-methylpyrazin-2-yl)-5,6,7,8-tetrahydroquinoline]		44.2	25.3	55.3		
	Fc1cnc(COc2cc(-c3cncnc3)c3c(n2)CCCC3)c(F)c1 [Example 277, 2-[(3,5-Difluoropyridin-2-yl)methoxy]-4-(pyrimidin-5-yl)-5,6,7,8-tetrahydroquinoline]		40.4	24.8	60.9		
